One experiment has as its system CD8+ T cells. In words: In vitro T-cell priming assay with aAPCs loaded with peptide/MHC complexes and anti-CD28 antibody, pMHC multimer readout. It is filed as cell-based, human. The conditions noted are these: for Wells positive [%]: percentage of positive wells among evaluable, HLA-A*02 restricted peptides; for Donors: percentage of positive donors; for Donors / Wells: HLA-A*02 healthy donors, three stimulation cycles; for Wells: percentage of positive wells. The source says:
In order to obtain information regarding the immunogenicity of the TUMAPs of the present invention, the inventors performed investigations using an in vitro T-cell priming assay based on repeated stimulations of CD8+ T cells with artificial antigen presenting cells (aAPCs) loaded with peptide/MHC complexes and anti-CD28 antibody.
In order to perform in vitro stimulations by artificial antigen presenting cells loaded with peptide-MHC complex (pMHC) and anti-CD28 antibody, the inventors first isolated CD8+ T cells from fresh HLA-A*02 leukapheresis products via positive selection using CD8 microbeads (Miltenyi Biotech, Bergisch-Gladbach, Germany) of healthy donors obtained from the University clinics Mannheim, Germany, after informed consent.
PBMCs and isolated CD8+ lymphocytes were incubated in T-cell medium (TCM) until use consisting of RPMI-Glutamax (Invitrogen, Karlsruhe, Germany) supplemented with 10% heat inactivated human AB serum (PAN-Biotech, Aidenbach, Germany), 100 U/ml Penicillin/100 μg/ml Streptomycin (Cambrex, Cologne, Germany), 1 mM sodium pyruvate (CC Pro, Oberdorla, Germany), 20 μg/ml Gentamycin (Cambrex). 2.5 ng/ml IL-7 (PromoCell, Heidelberg, Germany) and 10 U/ml IL-2 (Novartis Pharma, Nürnberg, Germany) were also added to the TCM at this step.
Generation of pMHC/anti-CD28 coated beads, T-cell stimulations and readout was performed in a highly defined in vitro system using four different pMHC molecules per stimulation condition and 8 different pMHC molecules per readout condition.
The purified co-stimulatory mouse IgG2a anti human CD28 Ab 9.3 (Jung et al., 1987) was chemically biotinylated using Sulfo-N-hydroxysuccinimidobiotin as recommended by the manufacturer (Perbio, Bonn, Germany). Beads used were 5.6 μm diameter streptavidin coated polystyrene particles (Bangs Laboratories, Illinois, USA).
pMHC used for positive and negative control stimulations were A*0201/MLA-001 (peptide […] (SEQ ID NO. 157) from modified Melan-A/MART-1) and A*0201/DDX5-001 ([…] from DDX5, SEQ ID NO. 158), respectively.
800.000 beads/200 μl were coated in 96-well plates in the presence of 4×12.5 ng different biotin-pMHC, washed and 600 ng biotin anti-CD28 were added subsequently in a volume of 200 μl. Stimulations were initiated in 96-well plates by co-incubating 1×10^6 CD8+ T cells with 2×10^5 washed coated beads in 200 μl TCM supplemented with 5 ng/ml IL-12 (PromoCell) for 3 days at 37° C. Half of the medium was then exchanged by fresh TCM supplemented with 80 U/ml IL-2 and incubating was continued for 4 days at 37° C. This stimulation cycle was performed for a total of three times. For the pMHC multimer readout using 8 different pMHC molecules per condition, a two-dimensional combinatorial coding approach was used as previously described (Andersen et al., 2012) with minor modifications encompassing coupling to 5 different fluorochromes. Finally, multimeric analyses were performed by staining the cells with Live/dead near IR dye (Invitrogen, Karlsruhe, Germany), CD8-FITC antibody clone SK1 (BD, Heidelberg, Germany) and fluorescent pMHC multimers. For analysis, a BD LSRII SORP cytometer equipped with appropriate lasers and filters was used. Peptide specific cells were calculated as percentage of total CD8+ cells. Evaluation of multimeric analysis was done using the FlowJo software (Tree Star, Oregon, USA). In vitro priming of specific multimer+CD8+ lymphocytes was detected by comparing to negative control stimulations.
Exemplary flow cytometry results after TUMAP-specific multimer staining for 2 peptides of the invention are shown in FIGS. 3A and 3B together with corresponding negative controls. Additional exemplary flow cytometry results after TUMAP-specific multimer staining for 3 peptides of the invention are shown in FIGS. 4A-4C together with corresponding negative controls.

The next experiment addresses HLA-A*02:01 (Homo sapiens, UniProt P04439, D140Y/D185E/D98H/E176V/E277Q/G131W/G231S/I119V/I121R/I166T/I218V/L300P/L318F/N151K/N90K/P208A/P217A/Q86G/Q94H/R138H/R169H/T345S). The experiment is described as follows: MHC binding assay: UV-ligand exchange with β2m ELISA. The conditions noted are these: binding of HLA-class I restricted peptides to HLA-A*02:01. The source says:
Candidate peptides for T cell based therapies according to the present invention were further tested for their MHC binding capacity (affinity). The individual peptide-MHC complexes were produced by UV-ligand exchange, where a UV-sensitive peptide is cleaved upon UV-irradiation, and exchanged with the peptide of interest as analyzed. Only peptide candidates that can effectively bind and stabilize the peptide-receptive MHC molecules prevent dissociation of the MHC complexes. To determine the yield of the exchange reaction, an ELISA was performed based on the detection of the light chain (β2m) of stabilized MHC complexes. The assay was performed as generally described in Rodenko et al. (Rodenko et al., 2006).
96 well MAXISorp plates (NUNC) were coated over night with 2 ug/ml streptavidin in PBS at room temperature, washed 4× and blocked for 1 h at 37° C. in 2% BSA containing blocking buffer. Refolded HLA-A*02:01/MLA-001 monomers served as standards, covering the range of 15-500 ng/ml. Peptide-MHC monomers of the UV-exchange reaction were diluted 100-fold in blocking buffer. Samples were incubated for 1 h at 37° C., washed four times, incubated with 2 ug/ml HRP conjugated anti-β2m for 1 h at 37° C., washed again and detected with TMB solution that is stopped with […]. Absorption was measured at 450 nm. Candidate peptides that show a high exchange yield (preferably higher than 50%, most preferred higher than 75%) are generally preferred for a generation and production of antibodies or fragments thereof, and/or T cell receptors or fragments thereof, as they show sufficient avidity to the MHC molecules and prevent dissociation of the MHC complexes.
(In general: An ELISA detects its analyte on a solid surface through an enzyme-linked reagent.)

“16 (ALKDSVQRA; listed as Homo sapiens) [compound 16]”: in the experiment with CD8+ T cells, the “Wells positive [%]” value is “+ (<20% = +)”. The “Peptide exchange (MHC class I binding score, peptide exchange yield)” value (shortened to “Peptide exchange”) with HLA-A*02:01 is “+++ (>50 = +++)”.

For the substance “3 (SLYGLGGSKRISI; listed as Homo sapiens) [compound 3]”, the “Wells positive [%]” value in the experiment with CD8+ T cells is reported as “+ (<20% = +)”. Further, in the experiment with HLA-A*02:01, the “Peptide exchange” value is reported as “+++ (>50 = +++)”.

Turning to “135 (GLFSQHFNL; listed as Homo sapiens) [compound 135]”, in the experiment with CD8+ T cells, the Donors entry is “++ (20%-49% = ++)” and the Wells entry is listed as “+ (<20% = +)”.

Regarding “145 (LLYGKYVSV; listed as Homo sapiens) [compound 145]”, in the experiment with CD8+ T cells, the Donors result is listed as “++++ (>=70% = ++++)” and the Wells result was “++ (20%-49% = ++)”.

Take “147 (ILMDPSPEYA; listed as Homo sapiens) [compound 147]”: in the experiment on CD8+ T cells, the Donors entry is “++++ (>=70% = ++++)” and the Wells entry was “+++ (50%-69% = +++)”.

As for “98 (SLYKGLLSV; listed as Homo sapiens) [compound 98]”, in the experiment with CD8+ T cells, the Donors entry is “++++ (>=70% = ++++)” and the Wells result was “++ (20%-49% = ++)”.

Turning to “143 (YVYQNNIYL; listed as Homo sapiens) [compound 143]”, in the experiment with CD8+ T cells, the Donors entry is recorded as “++ (20%-49% = ++)” and the Wells entry was “+ (<20% = +)”.

On to “123 (LLSGDLIFL; listed as Homo sapiens) [compound 123]”, for which, in the experiment with CD8+ T cells, the Donors entry is reported as “++++ (>=70% = ++++)” and the Wells entry is recorded as “++ (20%-49% = ++)”.

Consider “105 (STYGGGLSV; listed as Homo sapiens) [compound 105]”, for which, in the experiment with CD8+ T cells, the Donors entry is recorded as “++++ (>=70% = ++++)” and the Wells entry is “+ (<20% = +)”.

“114 (VLVPYEPPQV; listed as Homo sapiens) [compound 114]”: in the experiment with CD8+ T cells, the Donors result was “++++ (>=70% = ++++)” and the Wells entry is “+ (<20% = +)”.

Consider “101 (GLLPSAESIKL; listed as Homo sapiens) [compound 101]”, for which, in the experiment on CD8+ T cells, the Donors entry was “++++ (>=70% = ++++)” and the Wells result is listed as “+ (<20% = +)”.

For the substance “127 (SLFGKKYIL; listed as Homo sapiens) [compound 127]”, in the experiment with CD8+ T cells, the Donors result is “++++ (>=70% = ++++)” and the Wells entry is “++ (20%-49% = ++)”.

As for “154 (KMWEELPEVV; listed as Homo sapiens) [compound 154]”, in the experiment on CD8+ T cells, the Donors result was “++++ (>=70% = ++++)” and the Wells entry was “+ (<20% = +)”.

Regarding “113 (NLMASQPQL; listed as Homo sapiens) [compound 113]”, in the experiment on CD8+ T cells, the Donors entry is reported as “++++ (>=70% = ++++)” and the Wells entry is recorded as “+++ (50%-69% = +++)”.

For the substance “36 (GLWSSIFSL; listed as Homo sapiens) [compound 36]”, the “Peptide exchange” value with HLA-A*02:01 is “++++ (>75% = ++++)”.

For the substance “14 (RIMEGIPTV; listed as Homo sapiens) [compound 14]”, the “Peptide exchange” value in the experiment with HLA-A*02:01 was “++++ (>75% = ++++)”.

Consider “59 (YLQNEVFGL; listed as Homo sapiens) [compound 59]”, for which the “Peptide exchange” value in the experiment with HLA-A*02:01 is reported as “+++ (>50 = +++)”.

For “108 (SLYNLGGSKRISI; listed as Homo sapiens) [compound 108]”, in the experiment on CD8+ T cells, the Donors entry is listed as “++++ (>=70% = ++++)” and the Wells result is listed as “+ (<20% = +)”.

As for “75 (ALASAPTSV; listed as Homo sapiens) [compound 75]”, in the experiment with HLA-A*02:01, the “Peptide exchange” value was “++++ (>75% = ++++)”.

“47 (QLLEGELETL; listed as Homo sapiens) [compound 47]”: the “Peptide exchange” value with HLA-A*02:01 was “+++ (>50 = +++)”.

In the case of “32 (IQDAEGAIHEV; listed as Homo sapiens) [compound 32]”, in the experiment with HLA-A*02:01, the “Peptide exchange” value is reported as “++++ (>75% = ++++)”.

Turning to “150 (ILAEEPIYIRV; listed as Homo sapiens) [compound 150]”, in the experiment with CD8+ T cells, the Donors result is recorded as “++++ (>=70% = ++++)” and the Wells entry was “+++ (50%-69% = +++)”.

Consider “21 (FLHEPFSSV; listed as Homo sapiens) [compound 21]”, for which the “Peptide exchange” value with HLA-A*02:01 is “++++ (>75% = ++++)”.

Regarding “53 (RLVEVGGDVQL; listed as Homo sapiens) [compound 53]”, the “Peptide exchange” value in the experiment with HLA-A*02:01 is listed as “++++ (>75% = ++++)”.

Turning to “89 (VLDEGLTSV; listed as Homo sapiens) [compound 89]”, the “Peptide exchange” value with HLA-A*02:01 is “++++ (>75% = ++++)”.

For “15 (SMLNNIINL; listed as Homo sapiens) [compound 15]”, the “Peptide exchange” value in the experiment with HLA-A*02:01 is recorded as “+++ (>50 = +++)”.

Turning to “39 (LLPEDDTRDNV; listed as Homo sapiens) [compound 39]”, the “Peptide exchange” value with HLA-A*02:01 was “+++ (>50 = +++)”.

“109 (KIQEILTQV; listed as Homo sapiens) [compound 109]”: in the experiment on CD8+ T cells, the Donors result is reported as “+++ (50%-69% = +++)” and the Wells entry is reported as “+ (<20% = +)”.

As for “118 (TLLQEQGTKTV; listed as Homo sapiens) [compound 118]”, in the experiment on CD8+ T cells, the Donors result is “++ (20%-49% = ++)” and the Wells result was “+ (<20% = +)”.

For the substance “33 (AIYEGVGWNV; listed as Homo sapiens) [compound 33]”, the “Peptide exchange” value in the experiment with HLA-A*02:01 was “++++ (>75% = ++++)”.

For “64 (KILESLFVSL; listed as Homo sapiens) [compound 64]”, in the experiment with HLA-A*02:01, the “Peptide exchange” value was “+++ (>50 = +++)”.

With “54 (RLSGEGVGPV; listed as Homo sapiens) [compound 54]”, in the experiment with HLA-A*02:01, the “Peptide exchange” value is recorded as “+++ (>50 = +++)”.

As for “137 (GLAPFLLNAV; listed as Homo sapiens) [compound 137]”, in the experiment on CD8+ T cells, the Donors entry was “++++ (>=70% = ++++)” and the Wells entry is “+ (<20% = +)”.

As for “51 (FLIPSIIFA; listed as Homo sapiens) [compound 51]”, the “Peptide exchange” value in the experiment with HLA-A*02:01 is recorded as “++++ (>75% = ++++)”.

For the substance “61 (FVAGYIAGV; listed as Homo sapiens) [compound 61]”, the “Peptide exchange” value in the experiment with HLA-A*02:01 is reported as “++++ (>75% = ++++)”.

Take “66 (TLLSEIAEL; listed as Homo sapiens) [compound 66]”: in the experiment with HLA-A*02:01, the “Peptide exchange” value is recorded as “++++ (>75% = ++++)”.

(Values after patent US10688131B2, “Peptides and scaffolds for use in immunotherapy against head and neck squamous cell carcinoma and other cancers” (Immatics Biotechnologies GmbH, priority 2016, dated 2020).)
